Reference: patent publication US8207090B2, “Process for the anti-germination and/or biocide treatment of bulbs or tubers by means of CIPC and a terpene or terpene oil” (Xeda International, priority 2005, dated 2012)

Key:
potatoes = conditions: cited from earlier work; for Inhibition of tuber sprouts: in combination with CIPC
[1] = in conventional solvents, cited from earlier work
[2] = Solubility of CIPC in solvents / terpenes; type: physicochemical; conditions: with terpenes/terpene oils, at ambient temperature and as low as 0° C.
Method: Furthermore, CIPC dissolves with difficulty in conventional solvents, and maximum CIPC concentrations of approximately 30% (weight/volume) are generally obtained. At best, concentrations of approximately 54% at […] have been obtained. This low solubility entails the use of large amounts of solvent and/or formulation in order to obtain the required amounts of active ingredient. Nevertheless, efforts are generally made to limit the use of these solvents owing to their inherent toxicity and/or the danger of use that they entail, especially as a result of their low boiling points, which result in high risks of flammability.
It has now been discovered, and this is one of the subjects of the present invention, that terpenes and/or terpene oils, in particular eugenol, isoeugenol or clove oil, have a high capacity to dissolve CIPC, even in cases in which the two agents are applied separately. In particular, the use of terpenes and/or terpene oils of this type, applied before or after the CIPC, allows improved distribution of the CIPC on the potatoes. The separate application of the terpene or terpene oil therefore allows improved application, and accordingly penetration and efficacy, of the CIPC. […]

Compound: C=C(C)C1CC=C(C)C(=O)C1 (stereo not drawn) [carvone]
- Treated batches of potatoes suitable for sale (potatoes; dosage of 16.6 ppm, agent on its own): 0%

Compound: CC/C=C\CC1=C(C)CCC1=O [jasmone]
- Inhibition of tuber sprouts (potatoes): does not produce positive results

Compound: C=C(C)[C@H]1CC=C(C)CC1 [limonene]
- Inhibition of tuber sprouts (potatoes): does not produce positive results

Compound: CC(C)OC(=O)Nc1cccc(Cl)c1 [CIPC, 3-chlorophenylisopropylcarbamate]
- CIPC concentration, at best ([1]; at 180° C.): approximately 54%
- Maximum CIPC concentration [1]: approximately 30 % (weight/volume)
- CIPC concentration [2]: greater than 50 % by weight of CIPC relative to the total volume of the solution
